Data from patent publication US4432984A, “Anti-hypertensive benzodioxan derivatives” (Bouchara; Emile, priority 1981, dated 1984).
Counter-ions that a name gives are not always drawn.

What was measured:
[1] = Acute toxicity in mice by the oral route; conditions: mouse, in vivo, per os, read-out: Approximate lethal dose 50 (LD50)
Procedure: Toxicity was determined in mice by the oral route.

central nervous system = test: Effects on the central nervous system in mice; type: in vivo; conditions: oral, same dosages which induce an anti-hypertensive activity in rats
Source text: Such central effects may be directly related to the hypotensive action.

## O=C(c1ccc(F)cc1)C1CCN(CC2COc3ccccc3O2)CC1 (centres unmarked) [Example 2, 1-[(2,3-Dihydro-4H-1,4-benzodioxin)-2-ylmethyl]-4-(4-fluorobenzoyl)piperidine hydrochloride]
[1]
  LD50: 495 to 655 mg/kg
Central nervous system
  aggressiveness: a decrease of the aggressiveness
  experimentally-induced sleep: a potentiation of the experimentally-induced sleep
  sedation: a state of sedation

## O=C(Oc1ccc(C(=O)C2CCN(CC3COc4ccccc4O3)CC2)cc1)c1cccnc1 (centres unmarked) [Example 8, 1-[(2,3-Dihydro-4H-1,4-benzodioxin)-2-ylmethyl]-4-(4-hydroxybenzoyl)piperidine nicotinate]
[1]
  LD50: > 3200 mg/kg
